Experimental data published in patent US20250313563A1, “GLYCOGEN SYNTHASE KINASE 3 INHIBITORS AND USES THEREOF” (The Broad Institute, Inc., priority 2022, published 2025).
“Also recorded” adds a separate entry of the source. Where two headings read alike, the source gives them in different places.

How the values were obtained:
[1] = molecular target: GSK3α (Homo sapiens (Human), UniProt P49840); assay: AT8 (pS202/pThr205) tau phosphorylation FRET assay, GSK3α-transfected cells; assay type: cell-based; conditions: GSK3α and GSK3β transfected cells
Sequence of GSK3α (P49840 whole entry): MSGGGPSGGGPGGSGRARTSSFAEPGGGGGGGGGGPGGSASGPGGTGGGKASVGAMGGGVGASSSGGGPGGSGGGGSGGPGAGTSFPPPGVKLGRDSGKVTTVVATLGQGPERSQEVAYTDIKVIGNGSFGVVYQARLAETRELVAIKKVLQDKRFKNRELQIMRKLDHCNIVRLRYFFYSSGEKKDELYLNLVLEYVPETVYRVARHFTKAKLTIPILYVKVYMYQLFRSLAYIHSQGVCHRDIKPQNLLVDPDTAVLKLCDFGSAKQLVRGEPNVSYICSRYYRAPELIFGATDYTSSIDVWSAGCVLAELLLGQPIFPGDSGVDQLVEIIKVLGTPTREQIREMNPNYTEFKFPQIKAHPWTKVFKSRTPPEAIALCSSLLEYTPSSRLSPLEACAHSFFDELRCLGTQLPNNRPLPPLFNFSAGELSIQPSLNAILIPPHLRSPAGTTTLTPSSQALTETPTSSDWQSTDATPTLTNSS
Description: 293T cells stably expressing human 2N4R Tau were transfected with appropriate cDNA plasmids. 24 hours following transfection cells were treated with compound in a 10-point dose-response (from 1000× stocks of compound) and lysates harvested 2 hours later with cell extraction buffer (Life Technologies Cat #BN0001) or RIPA Buffer with Halt protease/phosphatase inhibitors added.
For AT8 assay: FRET antibodies (Custom designed Cisbio assay kit; S202/T205 Tb and total Tau D2 FRET antibodies) were added to lysate in a 384 well assay plate at 1:4 ratio (antibody/lysate). After antibody addition, the plate was left at room temperature for 60 minutes incubation time. Plate was read with appropriate wavelength settings using an Envision plate reader (ex320 and em620 and em665).

[2] = molecular target: NanoLuc-GSK3α (Homo sapiens (Human), UniProt P49840); assay: NanoBRET residence time, GSK3α; assay type: cell-based; conditions: inhibitor at 10× IC50, BRET every 5 min for 3 hours
Sequence of NanoLuc-GSK3α (P49840 whole entry): as above

[3] = molecular target: NanoLuc-GSK3β (Homo sapiens (Human), UniProt P49841); assay: NanoBRET residence time, GSK3β; assay type: cell-based; conditions: inhibitor at 10× IC50, BRET every 5 min for 3 hours
Sequence of NanoLuc-GSK3β (P49841 whole entry): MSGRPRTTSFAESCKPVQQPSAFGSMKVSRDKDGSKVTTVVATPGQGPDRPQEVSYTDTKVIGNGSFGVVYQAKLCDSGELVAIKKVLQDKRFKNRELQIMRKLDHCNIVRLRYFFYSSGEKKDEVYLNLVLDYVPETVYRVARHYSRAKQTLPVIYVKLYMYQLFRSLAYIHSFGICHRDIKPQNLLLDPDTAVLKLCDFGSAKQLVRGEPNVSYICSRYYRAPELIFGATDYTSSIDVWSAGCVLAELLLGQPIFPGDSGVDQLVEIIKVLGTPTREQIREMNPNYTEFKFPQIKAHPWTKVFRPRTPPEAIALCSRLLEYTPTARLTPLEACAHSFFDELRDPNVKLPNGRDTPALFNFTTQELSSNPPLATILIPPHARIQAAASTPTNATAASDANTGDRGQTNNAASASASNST

[4] = test system: tau phosphorylation at pThr231; assay: Rat developmental model of tau phosphorylation; assay type: in vivo, Sprague Dawley rats; conditions: P10 rats
Description: Sprague Dawley rats were bred in-house and litters were injected with compound, I.P. at post-natal day 10. Rats were then euthanized at indicated times following drug administration. For tissue collection, animals were euthanized via decapitation, brains were quickly removed, and bisected sagitally. The right cortex, was isolated, placed into 2 mL microtubes along with a single 5 mm stainless steel bead and the left cortex were placed into 2 mL Lysing Matrix A tubes (MP Biomedicals, Santa Ana, CA), Both tubes were immediately snap frozen in liquid nitrogen.
To determine whether a selective GSK3α inhibitor could also lower tau phosphorylation in a more physiological setting, 837646 was administered to rats at post-natal day 10. […] In the current experiment, 837646 was administered at 60, 20 and 10 mg/kg in P10 rats. The animals were sacrificed at several time points following treatment.

[5] = molecular target: GSK3α (GST-full length GSK3α) (Homo sapiens (Human), UniProt P49840); assay: GSK3α TR-FRET kinase assay; assay type: biochemical; conditions: geometric mean, GMean
Sequence of GSK3α (GST-full length GSK3α) (P49840 whole entry): as the sequence (P49840 whole entry) above
Outline: (§1)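 Compound preincubated 30 min, then 1 nM GST-full-length GSK3α or GSK3b run 100 min at ambient temperature with 200 nM biotinylated, S645-prephosphorylated glycogen synthase 631-650 peptide in Tris pH 7.5, MgCl2, DTT, BSA, 1% DMSO. ATP 4 μM (α) or 2 μM (β), or 1 mM. EDTA-quenched; Tb-anti-pSer641/streptavidin-d2 TR-FRET 665/615 ratio gave IC50.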

[6] = molecular target: GSK3b (GST-full length GSK3b) (Homo sapiens (Human), UniProt P49841); assay: GSK3b TR-FRET kinase assay; assay type: biochemical; conditions: geometric mean, GMean
Sequence of GSK3b (GST-full length GSK3b) (P49841 whole entry): as the sequence (P49841 whole entry) above
Outline: as §1

## CCC1(c2cccc(C(F)(F)F)c2)C2=C(Nc3n[nH]cc31)C(F)C(C)(C)CC2=O (single isomer, unassigned) [Compound 837646, 4-ethyl-8-fluoro-7,7-dimethyl-4-(3-(trifluoromethyl)phenyl)-2,4,6,7,8,9-hexahydro-5H-pyrazolo[3,4-b]quinolin-5-one]
[1]
  relative cellular potency and paralog selectivity at pS202/pThr205 (AT8) compared with pThr231 assay: similar
[2]
  residence time at GSK3α: no difference in the residence time
[3]
  residence time at GSK3β: no difference in the residence time
[4]; I.P., 20 or 60 mg/kg, 24 hr
  tau phosphorylation at pThr231 vs vehicle, 24 hr: significantly different from the vehicle group
[4]; I.P., 60, 20 and 10 mg/kg, 3 hours after administration
  tau phosphorylation at pThr231 vs vehicle, 3 hours: significant lowering of tau phosphorylation at pThr231; also recorded: reduction in tau phosphorylation at Thr231 at all doses tested
[5]; 1 nM GSK3α, 4 μM ATP, 30 minute preincubation, read-out: GSK3-A TR-FRET BIOCHEMICAL (TR-FRET), IC50
  IC50: ≤ 100 nM
[5]; GSK3-A (TR-FRET 1 mM ATP), IC50, 1 mM ATP
  IC50: ≤ 100 nM
[6]; 1 nM GSK3b, 2 μM ATP, 30 minute preincubation, read-out: GSK3-B TR-FRET BIOCHEMICAL (TR-FRET), IC50
  IC50: ≤ 100 nM
[6]; GSK3-B (TR-FRET 1 mM ATP), IC50, 1 mM ATP
  IC50: 1000 to 5000 nM
